The values below come from patent US4639450A, “Polyprenylcarboxylic acid morpholides and pharmaceutical compositions” (Eisai Co., Ltd., priority 1979, dated 1987).

Series [1] has as its system liver dysfunction (hepatitis) induced by D-galactosamine. Put plainly: Experiment I: effect on the liver dysfunction (hepatitis) induced by D-galactosamine, test compound administered into the abdominal cavity. Conditions: D-galactosamine hydrochloride 250 mg/Kg. It is filed as in vivo, Rats of the SD series. The method, then:
The effect on the liver dysfunction (hepatitis) induced by D-galactosamine by administration into the abdominal cavity was examined.
(§1) Rats of the SD series having a body weight of about 250 g were used as test animals. D-Galactosamine hydrochloride (250 mg/Kg each time) and the test compound (50 mg/Kg each time) were administered into the abdominal cavity according to the schedule described below. After termination of the experiment, blood was collected from the test animals, and the GOT value, GPT value and alkali phosphatase value, which are indicators of the degree of the liver dysfunction, were measured.
(§2) The test compound was suspended in a 5% aqueous solution of gum arabic and was administered in the form of the suspension. D-Galactosamine hydrochloride was dissolved in distilled water, the pH value of the solution was adjusted to 7 by potassium hydroxide and the resulting solution was administered. The test compound was administered to a group consisting of 9 rats, and in place of the test compound, a 5% aqueous solution of gum arabic free of the test compound was administered to a control group consisting of 14 rats. Neither the test compound nor D-galactosamine hydrochloride was administered to a normal group consisting of 9 rats.
(§3) Administration Schedule: [formula]

Series [2] shares this test system. Put plainly: Experiment II: effect on the liver dysfunction (hepatitis) induced by D-galactosamine, oral administration. Particulars: Tables 3 and 4, 400 mg/Kg each time, D-galactosamine hydrochloride 200 mg/Kg hypodermically; for GPT Value: normal 34.8 ± 1.9, control 395.7 ± 49.3; for Alkali Phosphatase Value: normal 49.3 ± 4.4, control 67.4 ± 2.9; for GOT Value: normal 129.4 ± 12.6, control 573.7 ± 59.1. It is filed as in vivo, Rats of the SD series. The method, then:
as §1, §2
The effect on the liver dysfunction (hepatitis) induced by D-galactosamine by oral administration was examined.
D-galactosamine hydrochloride (200 mg/Kg each time) was hypodermically administered, and the test compound (400 mg/Kg each time) was orally administered. The test compound-administered group consisted of 9 rats, the control group consisted of 14 rats, and the normal group consisted of 8 rats. The administration schedule was as follows.
as §3
Other test conditions were the same as in Experiment I.

Series [3] concerns rats of the Wistar series. Particulars: rat, in vivo, po, 4000 mg/kg. The method, then:
The compounds C, D, I and M were separately suspended in 5% aqueous solutions of gum arabic and the test composition were orally administered to rats of the Wistar series at a dose of 4000 mg/Kg.

Setting [4] is: Table 1, 50 mg/Kg each time, normal 32.3 ± 3.3, control 94.2 ± 6.9.
[5] abbreviates: Table 1, 50 mg/Kg each time, normal 33.1 ± 2.3, control 509 ± 94.
Where [6] appears, read: Table 1, 50 mg/Kg each time, normal 127.0 ± 6.1, control 751 ± 130.
Where [7] appears, read: Table 2, 50 mg/Kg each time, normal 39.0 ± 2.4, control 992.3 ± 121.2.
[8] abbreviates: Table 2, 50 mg/Kg each time, normal 48.9 ± 4.7, control 125.7 ± 4.9.
The mark [9] stands for this setting: Table 2, 50 mg/Kg each time, normal 129.9 ± 10.1, control 1081.8 ± 90.3.

`CC(C)CCCC(C)CCCC(C)CC(=O)N1CCOCC1` (stereo not shown) [compound A, 4-(3,7,11-trimethyldodecanoyl)morpholine]: the “Alkali Phosphatase Value” is listed as 31.9 ± 1.8 KA unit in series [1] (setting [4]) and 64.1 ± 4.6 KA unit in series [2]. In addition, the entries for the “GPT Value” in series [1] (setting [5]) and in series [2] were 46.8 ± 11 carmen unit and 62.1 ± 10.7 carmen unit, respectively. Also, the results for the “GOT Value” in series [1] (setting [6]) and in series [2] were 257.4 ± 31 carmen unit and 193.0 ± 18.5 carmen unit, respectively.
Consider `CC(C)=CCC/C(C)=C/CCC(C)CC(=O)N1CCOCC1` (stereo not shown) [compound B, 4-[(E)-3,7,11-trimethyl-6,10-dodecadienoyl]morpholine], for which the “Alkali Phosphatase Value” stood at 40.2 ± 2.4 KA unit in series [1] (setting [4]) and 62.9 ± 4.9 KA unit in series [2]. Besides, the “GPT Value” was 50.4 ± 16 carmen unit in series [1] (setting [5]) and 67.4 ± 7.3 carmen unit in series [2]. For the same compound, the “GOT Value” came out at 316 ± 27 carmen unit in series [1] (setting [6]) and 233.3 ± 22.2 carmen unit in series [2].
Take `CC(C)CCCC(C)CCCC(C)CCCC(C)CC(=O)N1CCOCC1` (stereo not shown) [compound C, 4-(3,7,11,15-tetramethylhexadecanoyl)morpholine]: the “Alkali Phosphatase Value” in series [1] (setting [4]) stood at 23.5 ± 1.8 KA unit; in series [2], 46.7 ± 4.0 KA unit. Further, the “GPT Value” was 40 ± 13 carmen unit in series [1] (setting [5]) and 122.0 ± 16.1 carmen unit in series [2]. The entries for the “GOT Value” in series [1] (setting [6]) and in series [2] were 352 ± 34 carmen unit and 231.1 ± 26.4 carmen unit, respectively. Besides, the death of rats entry in series [3] was “None of the rats died”.
Regarding `CC(C)=CCC/C(C)=C/CC/C(C)=C/CCC(C)CC(=O)N1CCOCC1` (stereo not shown) [compound D, 4-[(E,E)-3,7,11,15-tetramethyl-6,10,14-hexadecatrienoyl]morpholine], the “Alkali Phosphatase Value” in series [1] (setting [4]) was 28.5 ± 2.0 KA unit; in series [2] it was 53.1 ± 5.6 KA unit. Further, the “GPT Value” in series [1] (setting [5]) came to 94 ± 39 carmen unit; in series [2], 58.8 ± 5.5 carmen unit. The results for the “GOT Value” in series [1] (setting [6]) and in series [2] were 430 ± 58 carmen unit and 84.8 ± 8.9 carmen unit, respectively. Besides, in series [3], the death of rats entry was “None of the rats died”.
As to `CC(C)=CCC/C(C)=C/CC/C(C)=C/CCC(C)CC(N)=O` (stereo not shown) [compound E, (E,E)-3,7,11,15-tetramethyl-6,10,14-hexadecatrienamide], the “Alkali Phosphatase Value” in series [1] (setting [4]) worked out at 32.1 ± 2.6 KA unit. In addition, in series [1] (setting [5]), the “GPT Value” was 64 ± 15 carmen unit. In series [1] (setting [6]), the “GOT Value” was determined as 425 ± 24 carmen unit.
In the same order, the values of `CC(C)=CCC/C(C)=C/CC/C(C)=C/CCC(C)CC(=O)N(C)C` (stereo not shown) [compound F, (E,E)-N,N-dimethyl-3,7,11,15-tetramethyl-6,10,14-hexadecatrienamide] are 28.0 ± 2.4 KA unit, 90 ± 44 carmen unit and 400 ± 75 carmen unit.
In the same order, the values of `CC(C)=CCC/C(C)=C/CC/C(C)=C/CCC(C)CC(=O)N1CCN(CCO)CC1` (stereo not shown) [compound G, 1-[(E,E)-3,7,11,15-tetramethyl-6,10,14-hexadecatrienoyl]-4-(2-hydroxyethyl)piperazine] are 29.6 ± 2.3 KA unit, 84 ± 17 carmen unit and 414 ± 49 carmen unit.
On to `CC(=CC(=O)N1CCOCC1)CCCC(C)CCCC(C)C` (stereo not shown) [compound H, 4-(3,7,11-trimethyl-2-dodecaenoyl)morpholine], for which, in series [1] (setting [7]), the “GPT Value” came out at 511.3 ± 173.7 carmen unit. Besides, in series [1] (setting [8]), the “Alkali Phosphatase Value” was 49.0 ± 1.9 KA unit. Moreover, in series [1] (setting [9]), the “GOT Value” is given as 732.1 ± 147.3 carmen unit.
Regarding `CC(=CC(=O)N1CCOCC1)CCCC(C)CCCC(C)CCCC(C)C` (stereo not shown) [compound I, 4-(3,7,11,15-tetramethyl-2-hexadecaenoyl)morpholine], the “GPT Value” was found to be 135.3 ± 46.4 carmen unit in series [1] (setting [7]) and 154.9 ± 21.5 carmen unit in series [2]. The entries for the “Alkali Phosphatase Value” in series [1] (setting [8]) and in series [2] were 35.4 ± 5.2 KA unit and 44.31 ± 3.1 KA unit, respectively. For the same compound, the “GOT Value” in series [1] (setting [9]) was found to be 659.3 ± 72.5 carmen unit; in series [2], 284.9 ± 36.4 carmen unit. Besides, the death of rats result in series [3] is “None of the rats died”.
Take `CC(C)=CCCC(C)=CCCC(C)=CCCC(C)=CC(N)=O` [compound J, 3,7,11,15-tetramethyl-2,6,10,14-hexadecatetraenamide]: the “GPT Value” in series [1] (setting [7]) came out at 314.5 ± 65.9 carmen unit. For the same compound, the “Alkali Phosphatase Value” in series [1] (setting [8]) is 49.9 ± 3.0 KA unit. For the same compound, in series [1] (setting [9]), the “GOT Value” stood at 617.0 ± 50.5 carmen unit.
In the same order, the values of `CC(C)=CCCC(C)=CCCC(C)=CCCC(C)=CC(=O)N(C)C` [compound K, N,N-dimethyl-3,7,11,15-tetramethyl-2,6,10,14-hexadecatetraenamide] are 193.8 ± 38.1 carmen unit, 45.2 ± 1.8 KA unit and 586.0 ± 56.5 carmen unit.
In the same order, the values of `CC(C)=CCCC(C)=CCCC(C)=CCCC(C)=CC(=O)N1CCN(CCO)CC1` [compound L, 1-(3,7,11,15-tetramethyl-2,6,10,14-hexadecatetraenoyl)-4-(2-hydroxyethyl)piperazine] are 138.1 ± 16.9 carmen unit, 42.8 ± 1.8 KA unit and 451.7 ± 37.9 carmen unit.
`CC(C)=CCCC(C)=CCCC(C)=CCCC(C)=CC(=O)N1CCOCC1` [compound M, 4-(3,7,11,15-tetramethyl-2,6,10,14-hexadecatetraenoyl)morpholine]: in series [2], the “GPT Value” is reported as 58.9 ± 7.3 carmen unit, the “Alkali Phosphatase Value” was determined as 59.4 ± 4.9 KA unit and the “GOT Value” turned out to be 178.4 ± 10.3 carmen unit. For the same compound, the death of rats result in series [3] is “None of the rats died”.
